One may read the EC50 as the concentration needed to bring the measured effect to its halfway point. A low value points to an effect from little substance.

One test concerns the target A2A receptor (Sus scrofa, UniProt K9IW67). Description: A2A receptor affinity in pig striatum membrane prep (tritiated ZM 241385 displacement). The format is binding. The note with it: read-out: A2a Ki; pig striatal membranes, displacement of tritiated ZM 241385 (2 nM), 23° C. 2 h. As to the method: Compounds of this invention were assayed to determine their affinity for the A2A receptor in a pig striatum membrane prep. […]. To the pig membranes was added 2 μL of serially diluted DMSO stock solution of the compounds of this invention at concentrations ranging from 10 nM to 100 microM or the control received 2 microL of DMSO alone, then the antagonist ZM 241385 in Tris buffer (50 mM, pH of 7.4) was added to achieve a final concentration of 2 nM. After incubation at 23° C. for 2 h, then the solutions were filtered using a membrane harvester using multiple washing of the membranes (3×). The filter disks were counted in scintillation cocktail to determine the amount of displacement of tritiated ZM displaced by the compounds of this invention. Greater than a 5 point curve was used to generate Ki's and the number of experiments is indicated in the column marked in Table 1 below.

Another test has as its target human A2AAdoR (Homo sapiens (Human), UniProt P29274). The note with it: conclusion of Example 15. The procedure: Adenosine deaminase was purchased from Boehringer Mannheim Biochemicals Indianapolis, Id., U.S.A). [^3H]ZM241385 (Lot No. 1) was purchased from Tocris Cookson Ltd (Langford, Bristol, UK).
At the end of incubation, bound and free radioligands were separated by filtration through Whatman GF/C glass fiber filters using a Brandel tissue harvester (Gaithersburg, Md.). Triplicate determinations were performed for each concentration of the competing agent.
The affinity ([…]) of various CVT compounds for the A1 and A2A adenosine receptor were determined by their potency to compete for [^3H]CPX (A1) or [^3H]ZM241385 (A2A) binding sites on membranes derived from CHO-hA1AdoR, PC12 or HEK-HA2AAdoR cells. […] The affinity of selected compounds for A2B and A3 receptors were assessed by their potencies to compete for [^3H] […] ABMECA (A3) binding sites on membranes derived from HEK-hA2BAdoR and CHO-hA3AdoR cells, respectively.

A further test deals with human A1AdoR (Homo sapiens (Human), UniProt P30542). As to the kind of experiment: Competition binding, [3H]DPCPX/[3H]CPX sites on CHO-hA1AdoR cell membranes. The note with it: in presence of Gpp(NH)p 100 μM.
Chain of human A1AdoR (P30542 whole entry): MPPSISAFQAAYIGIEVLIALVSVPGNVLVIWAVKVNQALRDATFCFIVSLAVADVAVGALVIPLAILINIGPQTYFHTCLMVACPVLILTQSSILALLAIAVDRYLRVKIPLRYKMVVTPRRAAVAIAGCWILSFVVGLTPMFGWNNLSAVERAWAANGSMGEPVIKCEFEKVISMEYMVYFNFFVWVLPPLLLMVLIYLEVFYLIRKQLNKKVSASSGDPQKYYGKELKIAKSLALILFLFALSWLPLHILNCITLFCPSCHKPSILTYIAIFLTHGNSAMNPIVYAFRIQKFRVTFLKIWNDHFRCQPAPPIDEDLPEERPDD
Another test addresses human A2BAdoR (Homo sapiens (Human), UniProt P29275). Description: Competition for [3H]CPX binding sites on HEK-hA2BAdoR membranes. The note with it: compound at 10 μM. The procedure:
(§1) Cell culture and membrane preparation-PC12 cells were obtained from the American Type Culture Collection and grown in DMEM with 5% fetal bovine serum, 10% horse serum, 0.5 mmol/L L-glutamine, 100 U/mL penicillin, 0.1 mg/mL streptomycin, and 2.5 μg/mL amphotericin. HEK-293 cells stably expressing recombinant human A2BAdoRs (HEK-hA2BAdoR) were grown in DMEM supplemented with 10% fetal bovine serum and 0.5 mg/mL G-418. CHOK1 cells stably expressing the recombinant human A1AdoR (CHO-hA1AdoR) and A3AdoR (CHO-hA3AdoR) were grown as monolayers on 150-mm plastic culture dishes in Ham's F-12 media supplemented with 10% fetal bovine serum in the presence of 0.5 mg/mL G-418. Cells were cultured in an atmosphere of 5% CO2/95% air maintained at 37° C.
(§2) To make membranes, cells were detached from the culture plates into ice-cold 50 mmol/L Tris-HCl buffer (pH7.4). […] The protein concentration of membrane suspensions was determined using the Bradford method (Bio-Rad) with bovine serum as standards. […]
(§3) The affinity ([…]) of various CVT compounds for the A1 and A2A adenosine receptor were determined by their potency to compete for [^3H]CPX (A1) or [^3H]ZM241385 (A2A) binding sites on membranes derived from CHO-hA1AdoR, PC12 or HEK-HA2AAdoR cells. […] The affinity of selected compounds for A2B and A3 receptors were assessed by their potencies to compete for [^3H] […]

A further test addresses human A3AdoR (Homo sapiens (Human), UniProt P0DMS8). Description: Competition for [125I]ABMECA binding sites on CHO-hA3AdoR membranes. The note with it: compound at 10 μM. As to the method: as §1, §2, §3
Test [1] deals with A2A AdoR (Cavia porcellus (Guinea pig), UniProt P46616). An excerpt: (§4) Hearts were instrumented for continuous recording of coronary perfusion pressure (A2A response) and atrioventricular (A-V) conduction time or S-H interval (A1 response).
Chain of A2A AdoR (Cavia porcellus (Guinea pig), UniProt P46616) (P46616 whole entry, the tested form may be a part): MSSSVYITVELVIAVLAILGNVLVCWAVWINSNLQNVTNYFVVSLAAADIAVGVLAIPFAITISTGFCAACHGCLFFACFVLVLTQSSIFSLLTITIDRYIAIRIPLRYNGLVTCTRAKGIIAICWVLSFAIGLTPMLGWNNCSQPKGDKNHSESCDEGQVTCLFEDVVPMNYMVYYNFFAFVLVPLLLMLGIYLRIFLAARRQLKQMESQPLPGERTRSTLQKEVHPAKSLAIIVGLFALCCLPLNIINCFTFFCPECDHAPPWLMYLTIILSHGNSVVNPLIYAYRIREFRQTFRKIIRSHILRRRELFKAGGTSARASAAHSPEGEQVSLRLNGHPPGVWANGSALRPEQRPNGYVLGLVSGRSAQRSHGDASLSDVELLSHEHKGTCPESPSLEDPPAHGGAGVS
The target of test [2] is A2A AdoR (Rattus norvegicus (Rat), UniProt P30543).
Chain of A2A AdoR (Rattus norvegicus (Rat), UniProt P30543) (P30543 whole entry): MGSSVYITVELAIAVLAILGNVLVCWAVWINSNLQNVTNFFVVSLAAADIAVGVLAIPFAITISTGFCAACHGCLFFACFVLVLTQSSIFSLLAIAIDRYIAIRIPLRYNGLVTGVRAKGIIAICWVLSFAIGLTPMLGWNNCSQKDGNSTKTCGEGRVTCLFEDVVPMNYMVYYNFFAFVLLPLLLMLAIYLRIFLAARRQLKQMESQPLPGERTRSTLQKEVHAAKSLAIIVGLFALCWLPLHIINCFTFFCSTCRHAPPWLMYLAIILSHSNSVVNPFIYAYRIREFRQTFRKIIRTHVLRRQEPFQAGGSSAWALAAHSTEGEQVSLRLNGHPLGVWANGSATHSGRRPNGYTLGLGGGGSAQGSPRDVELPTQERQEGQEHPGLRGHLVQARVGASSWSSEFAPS
Source text: as §4

For test [3], the target named is A1 AdoR (Rattus norvegicus (Rat), UniProt P25099). As to the kind of experiment: A-V nodal conduction time (negative dromotropic effect) in rat isolated perfused hearts. The note with it: Compound 16 0.1-30 μM, CVT510 100-400 nM. The procedure:
(§5) In experiments in which A1 adenosine receptor-mediated negative dromotropic effect was measured, atrial and ventricular surface electrograms were recorded during constant atrial pacing.
(§6) A1 adenosine receptor-mediated depression of A-V nodal conduction time (negative dromotropic effect) was measured. Atrial and ventricular surface electrograms in rats and His bundle electrogram in guinea pigs, were recorded during constant atrial pacing.
as §4

The target in test [4] is A1 AdoR (Cavia porcellus (Guinea pig), UniProt P47745). As to the method: as §5, §6, §4
Chain of A1 AdoR (Cavia porcellus (Guinea pig), UniProt P47745) (P47745 whole entry): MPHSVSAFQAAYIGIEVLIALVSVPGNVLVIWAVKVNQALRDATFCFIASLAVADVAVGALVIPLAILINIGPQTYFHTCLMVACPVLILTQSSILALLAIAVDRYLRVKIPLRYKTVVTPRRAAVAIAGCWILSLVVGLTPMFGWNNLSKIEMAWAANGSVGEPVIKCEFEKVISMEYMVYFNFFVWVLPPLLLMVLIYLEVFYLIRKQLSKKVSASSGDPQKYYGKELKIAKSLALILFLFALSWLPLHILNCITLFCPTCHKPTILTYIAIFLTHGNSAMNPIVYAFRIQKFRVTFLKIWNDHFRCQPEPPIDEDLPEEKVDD

Where two headings read alike, the source gives them in different places.

Chain of A2A receptor (K9IW67 1-409): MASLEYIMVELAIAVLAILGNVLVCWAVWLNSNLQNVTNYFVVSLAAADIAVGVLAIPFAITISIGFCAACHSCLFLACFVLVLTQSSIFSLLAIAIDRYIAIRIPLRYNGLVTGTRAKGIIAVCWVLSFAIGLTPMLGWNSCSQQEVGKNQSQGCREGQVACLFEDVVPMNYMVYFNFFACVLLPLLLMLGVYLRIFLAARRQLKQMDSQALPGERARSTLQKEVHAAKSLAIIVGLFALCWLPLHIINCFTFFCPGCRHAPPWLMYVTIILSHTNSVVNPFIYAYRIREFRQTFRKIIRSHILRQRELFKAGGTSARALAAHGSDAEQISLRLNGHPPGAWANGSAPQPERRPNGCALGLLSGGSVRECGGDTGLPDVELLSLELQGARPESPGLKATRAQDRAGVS
Chain of human A2AAdoR (P29274 whole entry): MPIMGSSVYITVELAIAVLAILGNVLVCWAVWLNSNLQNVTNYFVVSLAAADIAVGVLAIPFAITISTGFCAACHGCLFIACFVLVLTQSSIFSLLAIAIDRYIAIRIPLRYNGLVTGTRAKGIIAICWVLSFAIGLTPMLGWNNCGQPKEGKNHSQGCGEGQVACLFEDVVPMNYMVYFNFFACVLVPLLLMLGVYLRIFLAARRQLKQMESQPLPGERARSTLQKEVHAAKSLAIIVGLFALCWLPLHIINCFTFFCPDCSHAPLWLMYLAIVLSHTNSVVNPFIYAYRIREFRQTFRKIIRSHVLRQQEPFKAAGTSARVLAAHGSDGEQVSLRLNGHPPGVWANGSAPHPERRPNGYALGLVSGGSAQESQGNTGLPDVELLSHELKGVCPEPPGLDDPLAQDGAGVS
Chain of human A3AdoR (P0DMS8 whole entry, the tested form may be a part): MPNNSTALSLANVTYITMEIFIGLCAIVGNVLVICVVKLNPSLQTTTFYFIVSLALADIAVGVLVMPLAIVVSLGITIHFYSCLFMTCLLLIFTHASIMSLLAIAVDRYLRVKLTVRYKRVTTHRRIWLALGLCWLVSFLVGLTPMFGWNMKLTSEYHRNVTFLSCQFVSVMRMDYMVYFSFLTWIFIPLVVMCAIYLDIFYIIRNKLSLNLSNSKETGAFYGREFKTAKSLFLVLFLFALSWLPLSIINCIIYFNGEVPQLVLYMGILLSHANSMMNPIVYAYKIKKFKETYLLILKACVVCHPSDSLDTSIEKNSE
Chain of A1 AdoR (Rattus norvegicus (Rat), UniProt P25099) (P25099 whole entry, the tested form may be a part): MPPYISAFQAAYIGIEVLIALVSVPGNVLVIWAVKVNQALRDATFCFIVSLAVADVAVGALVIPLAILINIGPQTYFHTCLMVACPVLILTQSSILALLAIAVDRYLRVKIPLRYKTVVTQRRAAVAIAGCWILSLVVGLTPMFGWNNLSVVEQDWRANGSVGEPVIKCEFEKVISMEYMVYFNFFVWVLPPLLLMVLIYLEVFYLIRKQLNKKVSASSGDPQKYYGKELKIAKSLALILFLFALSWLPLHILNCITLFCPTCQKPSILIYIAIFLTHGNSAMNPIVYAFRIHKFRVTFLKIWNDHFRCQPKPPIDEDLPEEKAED
Chain of human A2BAdoR (P29275 whole entry): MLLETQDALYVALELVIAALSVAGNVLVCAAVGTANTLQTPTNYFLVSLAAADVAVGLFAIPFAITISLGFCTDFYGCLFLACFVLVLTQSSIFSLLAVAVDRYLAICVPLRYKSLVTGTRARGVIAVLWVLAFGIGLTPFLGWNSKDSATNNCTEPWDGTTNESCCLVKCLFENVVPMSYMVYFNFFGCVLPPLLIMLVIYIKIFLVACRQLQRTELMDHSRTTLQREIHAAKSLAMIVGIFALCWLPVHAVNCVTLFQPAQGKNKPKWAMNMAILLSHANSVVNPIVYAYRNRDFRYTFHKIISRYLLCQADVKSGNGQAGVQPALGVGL

Consider `CNC(=O)c1cnn(-c2nc(N)c3ncn(C4O[C@H](CO)[C@@H](O)[C@H]4O)c3n2)c1` (stereo partly drawn) [Compound 16, (1-{9-[(4S,2R,3R,5R)-3,4-dihydroxy-5-(bydroxymethyl)oxolan-2-yl]-6-aminopurin-2-yl}pyrazol-4-yl)-N-methylcarboxamide], for which the Ki at A2A receptor is 1 to 10 µM; at human A1AdoR (read-out: Binding Affinity Ki, CHO-hA1AR), over 16.5 µM; at human A1AdoR (read-out: Binding Affinity pKi ± SEM, CHO-hA1AR (converted)), 25.7 µM. Besides, on human A2AAdoR, the “A2A affinity in words” value is given as “low affinity A2A agonist”. In addition, the “Decrease of specific binding of [3H]CPX (HEK-hA2BAdoR)” value on human A2BAdoR was 20%. Also, the “Decrease of specific binding of [125I]IBMECA (CHO-hA3AdoR)” value on human A3AdoR came out at 22%. Besides, the EC50 worked out at 0.0186 ± 0.006 µM at A2A AdoR [1], 0.0064 ± 0.0006 µM at A2A AdoR [2] and 4 ± 2.3 µM at A1 AdoR [4]. In addition, on A1 AdoR [3], the “Effect on A-V nodal conduction time” value is recorded as “did not prolong”.

The values are drawn from patent publication USRE47351E1 (Gilead Sciences, Inc., priority 1999, dated 2019).
